These results are taken from patent publication US12178821B2, “Combination therapies for the treatment of cancer” (Curis, Inc., priority 2021, dated 2024).

“Also recorded” adds a separate entry of the source. Like-named read-outs stand apart in the source and are kept apart here. A value given as a limit tells only on which side of the number the result lay.

One may read the GI50 as the concentration that inhibits growth by half.

For series [1] the following is noted: concentration used in the combination experiments; cited from earlier work.
For a further series, the system named is OC1-AML2. The series is described as follows: CellTiter Glo cell viability assay, GI50, 72 hrs. Format: cell-based. As for the experimental part: (§1) CellTiter Glo cell viability assay was used to evaluate the antitumor effects of Compound 1 in combination with AML SOC drugs daunorubicin, Ara-C, decitabine, azacitidine and venetoclax in FLT3-WT AML cell lines THP-1, F-36P, OCl-AML2 and GDM-1. GI50 (the concentration for 50% of maximal inhibition of cell proliferation) was determined for each drug in AML cell lines.
(§2) Cells were treated for 72 hrs. Relative cell viability was measured by CellTiter Glo assay (Promega, Madison, WI) at 0 and at 72 hrs. GI50 was calculated using GraphPad Prism 8.0 software.
(Cellular ATP, detected with luciferase, serves as a proxy for viable cell number.)

For another series, the system named is GDM-1. The series is described as follows: CellTiter Glo cell viability assay, GI50, 72 hrs. It is filed as cell-based. As for the experimental part:
as §1, §2

For the next series, the system named is F-36P. Description: CellTiter Glo cell viability assay, GI50, 72 hrs. It is filed as cell-based. As for the experimental part: as §1, §2
The test system of a further series is THP-1. The series is described as follows: CellTiter Glo cell viability assay, GI50, 72 hrs. Format: cell-based. Here is the method:
as §1, §2

Series [2] relates to FLT3-WT AML cell lines THP-1, F-36P, OCl-AML2 and GDM-1. Description: CellTiter Glo combination experiments summarised over the cell line panel. It is filed as cell-based. The note with it: 4 FLT3-WT AML cell lines, 96 hrs, clinically relevant drug concentration. As for the experimental part:
CellTiter Glo cell viability assay was used to evaluate the antitumor effects of Compound 1 in combination with AML SOC drugs daunorubicin, Ara-C, decitabine, azacitidine and venetoclax in FLT3-WT AML cell lines THP-1, F-36P, OCl-AML2 and GDM-1. GI50 (the concentration for 50% of maximal inhibition of cell proliferation) was determined for each drug in AML cell lines. Either GI50 (below peak plasma concentration) or peak plasma concentration (if GI50 was higher than peak plasma concentration) of each drug was used as clinically relevant concentration for combination experiments.
Cells were treated continuously with clinically relevant drug concentration for 96 hrs. Relative cell viability was measured by CellTiter Glo assay (Promega, Madison, WI) at 0 and at 96 hrs according to manufacturer's instructions. All values are presented as mean±SE. Cell viability assay data were analyzed with one-way ANOVA. P values less than 0.05 were considered significant. Statistical analysis was performed using GraphPad Prism 8.0 software. + Less than 50% growth inhibition, p<0.05; ++ 50-100% growth inhibition, p<0.05; +++ Induction of cell death (cytotoxic effect), p<0.05; NS, not significant; ND, not defined. *Venetoclax resistant cell line, **Azacitidine/Decitabine resistant cell line. Clinically relevant conc (peak plasma conc): Compound 1-10 μM; Venetoclax—1 μM; and Azacitidine—4 μM.

The mark [3] stands for this setting: OC1-AML2 cells, treated for 72 hrs, CellTiter Glo, read-out: GI50.
Setting [4] is: Homo sapiens, GDM-1 cells, treated for 72 hrs, CellTiter Glo, read-out: GI50.
Where [5] appears, read: F-36P cells, treated for 72 hrs, CellTiter Glo, read-out: GI50.
[6] abbreviates: Homo sapiens, THP-1 cells, treated for 72 hrs, CellTiter Glo, read-out: GI50.

Regarding `Nc1ncn([C@@H]2O[C@H](CO)[C@@H](O)[C@H]2O)c(=O)n1` [Azacitidine], the “Clinically relevant conc (peak plasma conc)” value (“Clinically relevant conc” for short) in series [1] is 4 µM. For the same molecule, the 50% growth inhibitory concentration (GI50) stood at 30000 nM with OC1-AML2 (setting [3]), 2000 nM in the series with GDM-1 (setting [4]), 4000 nM with F-36P (setting [5]) and 3000 nM in the series on THP-1 (setting [6]). The “resistance of the cell line to the treatment” value in the series on OC1-AML2 (OCl-AML2) was “resistant”.
As for `CC1(C)CCC(CN2CCN(c3ccc(C(=O)NS(=O)(=O)c4ccc(NCC5CCOCC5)c([N+](=O)[O-])c4)c(Oc4cnc5[nH]ccc5c4)c3)CC2)=C(c2ccc(Cl)cc2)C1` [Venetoclax], in series [1], the “Clinically relevant conc” value is 1 µM. In addition, the GI50 in the series on OC1-AML2 (setting [3]) worked out at 2 nM; with GDM-1 (setting [4]), 5 nM; in the series on F-36P (setting [5]), 18000 nM; in the series on THP-1 (setting [6]), 18000 nM.
`COc1cccc2c1C(=O)c1c(O)c3c(c(O)c1C2=O)C[C@@](O)(C(C)=O)C[C@@H]3O[C@H]1C[C@H](N)[C@H](O)[C@H](C)O1` [Daunorubicin]: the concentration for 50% growth inhibition (GI50) stood at 5 nM in the series with OC1-AML2 (72 h); 10 nM in the series on GDM-1 (Homo sapiens, GDM-1, 72 h); 100 nM in the series with F-36P (72 h); 5 nM with THP-1 (Homo sapiens, THP-1, 72 h).
Regarding `Nc1ncn([C@H]2C[C@H](O)[C@@H](CO)O2)c(=O)n1` [Decitabine], the 50% growth inhibitory concentration (GI50) with OC1-AML2 (72 h) amounted to 18000 nM; in the series with GDM-1 (Homo sapiens, GDM-1, 72 h), 80 nM; in the series on F-36P (72 h) it was 200 nM; with THP-1 (Homo sapiens, THP-1, 72 h), 150 nM.
On to `Cc1cc(-c2nc(C(=O)Nc3cc4oc(N5CCOCC5)nc4nc3N3CC[C@@H](O)C3)co2)ccn1` [Compound 1], for which, in series [1], the “Clinically relevant conc” value is 10 µM. The concentration for 50% growth inhibition (GI50) in the series on OC1-AML2 (setting [3]) was 13000 nM; in the series on GDM-1 (setting [4]), more than 20000 nM; with F-36P (setting [5]), more than 20000 nM; in the series on THP-1 (setting [6]), more than 20000 nM. For the same molecule, in series [2], the “antitumor effect of the combination over the cell line panel, in words” value was “potentiated antitumor effects of azacitidine in 3 of 4 FLT3-WT AML cell lines; also recorded: significantly potentiated antitumor effects of azacitidine+venetoclax in all AML FLT3-WT cell lines”.
`Nc1ccn([C@@H]2O[C@H](CO)[C@@H](O)[C@@H]2O)c(=O)n1` [Ara-C]: the concentration for 50% growth inhibition (GI50) in the series on OC1-AML2 (setting [3]) was found to be 4000 nM; in the series on GDM-1 (GDM-1 cells, treated for 72 hrs, CellTiter Glo, read-out: GI50), 5 nM; in the series on F-36P (setting [5]), 150 nM; in the series on THP-1 (THP-1 cells, treated for 72 hrs, CellTiter Glo, read-out: GI50), 150 nM.
